What all share (assay type): biochemical
For experiment [1], the target named is T1, recombinant human DAO (diamine oxidase) (Homo sapiens, UniProt P19801).
T1 construct: purchased R&D systems
T1 sequence (P19801 20-751): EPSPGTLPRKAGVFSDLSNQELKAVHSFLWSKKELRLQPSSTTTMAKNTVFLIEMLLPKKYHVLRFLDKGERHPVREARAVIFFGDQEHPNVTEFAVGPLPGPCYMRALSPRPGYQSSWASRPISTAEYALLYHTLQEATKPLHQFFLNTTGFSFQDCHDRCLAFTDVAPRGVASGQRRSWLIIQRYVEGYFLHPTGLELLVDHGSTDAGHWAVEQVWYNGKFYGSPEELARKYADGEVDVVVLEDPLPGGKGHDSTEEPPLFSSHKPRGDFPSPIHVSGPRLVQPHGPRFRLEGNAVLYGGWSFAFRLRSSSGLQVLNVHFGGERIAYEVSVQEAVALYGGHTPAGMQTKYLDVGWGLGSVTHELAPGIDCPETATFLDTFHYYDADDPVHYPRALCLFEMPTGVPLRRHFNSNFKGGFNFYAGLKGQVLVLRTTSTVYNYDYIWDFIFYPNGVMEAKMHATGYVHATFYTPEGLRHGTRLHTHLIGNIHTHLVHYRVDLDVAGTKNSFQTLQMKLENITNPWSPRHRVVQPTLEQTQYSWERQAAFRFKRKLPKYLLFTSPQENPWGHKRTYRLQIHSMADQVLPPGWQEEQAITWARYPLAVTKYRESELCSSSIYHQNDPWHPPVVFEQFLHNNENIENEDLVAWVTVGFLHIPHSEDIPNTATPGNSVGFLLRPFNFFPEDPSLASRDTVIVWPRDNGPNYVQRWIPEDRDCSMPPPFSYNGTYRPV
The experiment in a line: Activity on recombinant human DAO, method similar to the VAP-1 assay. To be noted: substrate 1 mM putrescine; read-out: Inhibitory Activity (IC50, nM) DAO. In outline:
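Inhibition of recombinant human diamine oxidase (DAO, R&D systems) was assessed by the same approach as the VAP-1 assay, using 1 mM putrescine as substrate. Hydrogen peroxide formed was detected through an HRP-coupled Amplex Red reaction yielding fluorescent resorufin, read at 544 nm excitation and 590 nm emission. IC50 values came from four-parameter logistic fitting in GraphPad Prism.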

For experiment [2], the target named is T2, recombinant human MAO-B (monoamine oxidase-B) (Homo sapiens, UniProt P27338).
T2 construct: purchased Sigma-Aldrich
T2 sequence (P27338 1-520): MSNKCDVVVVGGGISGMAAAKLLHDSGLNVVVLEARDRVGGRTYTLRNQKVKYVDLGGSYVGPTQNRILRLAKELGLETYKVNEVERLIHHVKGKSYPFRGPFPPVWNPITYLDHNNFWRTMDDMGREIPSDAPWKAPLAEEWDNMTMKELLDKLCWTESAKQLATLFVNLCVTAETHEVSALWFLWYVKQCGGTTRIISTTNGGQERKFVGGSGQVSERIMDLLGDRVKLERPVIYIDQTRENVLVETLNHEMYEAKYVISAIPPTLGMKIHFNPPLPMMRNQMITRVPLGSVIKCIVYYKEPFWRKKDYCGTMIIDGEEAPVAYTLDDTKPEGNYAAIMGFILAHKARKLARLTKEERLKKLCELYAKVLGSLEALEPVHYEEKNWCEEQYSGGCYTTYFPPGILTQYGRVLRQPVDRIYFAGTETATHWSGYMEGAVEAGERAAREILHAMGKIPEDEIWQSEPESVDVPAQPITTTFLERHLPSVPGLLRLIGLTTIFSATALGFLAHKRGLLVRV
The experiment in a line: Activity on recombinant human MAO-B, method similar to the VAP-1 assay. To be noted: substrate 1 mM benzylamine; read-out: Inhibitory Activity (IC50, nM) MAO-B. In outline: (§1)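 HRP-coupled Amplex Red H2O2 assay, 50 mM sodium phosphate pH 7.4; compounds (8-point 1:3 series, final DMSO <1%) preincubated with enzyme 30 min at 37° C, then 200 uM Amplex Red, 1 U/mL HRP and substrate (MAO-A 0.5 mM tyramine; MAO-B 1 mM benzylamine) added. Resorufin fluorescence (ex 544/em 590 nm) read over 1-2 h; IC50 from four-parameter logistic fit.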

The target in a further experiment is T3, recombinant human VAP-1 (Homo sapiens, UniProt Q16853).
T3 construct: purchased R&D systems
T3 sequence (Q16853 1-763): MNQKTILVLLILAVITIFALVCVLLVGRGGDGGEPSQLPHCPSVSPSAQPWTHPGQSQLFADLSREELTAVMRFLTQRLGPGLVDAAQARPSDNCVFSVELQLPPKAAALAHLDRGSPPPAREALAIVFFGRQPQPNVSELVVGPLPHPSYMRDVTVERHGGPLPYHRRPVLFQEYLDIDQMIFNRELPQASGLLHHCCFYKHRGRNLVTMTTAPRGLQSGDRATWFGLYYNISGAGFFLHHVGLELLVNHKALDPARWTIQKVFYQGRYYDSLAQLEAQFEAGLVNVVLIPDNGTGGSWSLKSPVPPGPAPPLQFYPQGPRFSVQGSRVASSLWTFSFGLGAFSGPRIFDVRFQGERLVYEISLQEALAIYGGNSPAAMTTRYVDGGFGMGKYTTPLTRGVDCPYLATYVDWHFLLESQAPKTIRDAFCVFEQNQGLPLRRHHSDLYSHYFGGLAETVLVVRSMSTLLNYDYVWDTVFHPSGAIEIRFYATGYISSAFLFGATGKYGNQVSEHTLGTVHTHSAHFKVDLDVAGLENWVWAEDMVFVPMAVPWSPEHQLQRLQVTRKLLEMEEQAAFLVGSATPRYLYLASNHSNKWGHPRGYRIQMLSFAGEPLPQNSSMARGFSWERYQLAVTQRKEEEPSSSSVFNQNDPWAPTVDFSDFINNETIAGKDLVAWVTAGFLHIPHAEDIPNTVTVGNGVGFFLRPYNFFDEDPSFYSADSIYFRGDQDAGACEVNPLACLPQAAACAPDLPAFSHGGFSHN
Description: Activity on recombinant human VAP-1, HRP-coupled Amplex Red hydrogen peroxide assay. The conditions noted are these: substrate 1 mM benzylamine; compound incubated with enzyme at 37° C. for 30 minutes; pH 7.4; read-out: Inhibitory Activity (IC50, nM) human VAP-1. In outline: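 8-point 1:3 dilutions, final DMSO <1%; 30 min enzyme preincubation, 37 °C, pH 7.4 phosphate. Start: 1 mM benzylamine + 200 uM Amplex Red + 1 U/mL HRP. Read ex544/em590 over 1-2 h; % rate decrease vs DMSO control, 4-parameter logistic IC50.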

The target in experiment [3] is T4, recombinant human MAO-A (monoamine oxidase-A) (Homo sapiens, UniProt P21397).
T4 construct: purchased Sigma-Aldrich
T4 sequence (P21397 1-527): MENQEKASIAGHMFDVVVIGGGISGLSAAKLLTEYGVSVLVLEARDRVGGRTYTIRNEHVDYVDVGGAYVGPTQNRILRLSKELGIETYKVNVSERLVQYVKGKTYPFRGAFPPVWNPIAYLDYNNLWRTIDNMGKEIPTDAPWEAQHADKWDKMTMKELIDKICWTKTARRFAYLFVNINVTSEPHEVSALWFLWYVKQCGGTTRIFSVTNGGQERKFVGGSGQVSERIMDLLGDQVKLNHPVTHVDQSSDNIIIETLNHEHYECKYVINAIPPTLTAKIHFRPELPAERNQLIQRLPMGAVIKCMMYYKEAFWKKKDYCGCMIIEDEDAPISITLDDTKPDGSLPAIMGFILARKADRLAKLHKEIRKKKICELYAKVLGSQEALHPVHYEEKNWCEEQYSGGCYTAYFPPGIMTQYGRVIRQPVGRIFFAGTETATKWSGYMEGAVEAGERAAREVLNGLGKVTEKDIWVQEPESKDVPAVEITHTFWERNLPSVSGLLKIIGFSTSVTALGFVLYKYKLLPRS
Description: Activity on recombinant human MAO-A, method similar to the VAP-1 assay. To be noted: substrate 0.5 mM tyramine; read-out: Inhibitory Activity (IC50, nM) MAO-A. In outline:
as §1

Structures can show the parent of a compound that is named as a salt.

For the compound `NC/C(=C\F)Cn1ncn(Cc2ccc(-c3ccc(F)c(C(F)(F)F)c3)s2)c1=O` [Example 15, 2-[(2E)-2-(aminomethyl)-3-fluoroprop-2-en-1-yl]-4-(5-[4-fluoro-3-(trifluoromethyl)phenyl]thiophen-2-ylmethyl)-2,4-dihydro-3H-1,2,4-triazol-3-one hydrochloride], the IC50 (in general, the concentration that gives 50% inhibition) in experiment [1] was 670 nM; in experiment [2], 5 nM; at recombinant human VAP-1, 0.9 nM; in experiment [3], > 100000 nM.

For `NC/C(=C\F)Cn1ncn(Cc2ccc(-c3cccc4cnccc34)s2)c1=O` [Example 114, 2-[(2E)-2-(aminomethyl)-3-fluoroprop-2-en-1-yl]-4-[5-(isoquinolin-5-yl)thiophen-2-yl]methyl-2,4-dihydro-3H-1,2,4-triazol-3-one hydrochloride], the IC50 in experiment [1] is 110 nM; in experiment [2] it was 23 nM; on recombinant human VAP-1, 0.3 nM; in experiment [3] it was 143000 nM.

For the compound `CS(=O)(=O)CCn1cc(-c2ccc(Cn3cnn(C/C(=C/F)CN)c3=O)s2)ccc1=O` [Example 188, 5-[5-({1-[(2E)-2-(aminomethyl)-3-fluoroprop-2-en-1-yl]-5-oxo-1,5-dihydro-4H-1,2,4-triazol-4-yl}methyl)thiophen-2-yl]-1-[2-(methylsulfonyl)ethyl]pyridin-2(1H)-one], the IC50 is 450 nM in experiment [1], > 10000 nM in experiment [2], 4.2 nM on recombinant human VAP-1 and > 100000 nM in experiment [3].

As to `NC/C(=C\F)Cn1ncn(Cc2ccc(-c3ccc(OC(F)F)cc3)s2)c1=O` [Example 170, 2-[(2E)-2-(aminomethyl)-3-fluoroprop-2-en-1-yl]-4-({5-[4-(difluoromethoxy)phenyl]thiophen-2-yl}methyl)-2,4-dihydro-3H-1,2,4-triazol-3-one], the IC50 was 3100 nM in experiment [1], 190 nM in experiment [2], 3 nM on recombinant human VAP-1 and > 100000 nM in experiment [3].

Turning to `CC(C)Oc1ccc(-c2ccc(Cn3cnn(C/C(=C/F)CN)c3=O)s2)cn1` [Example 185, 2-[(2E)-2-(aminomethyl)-3-fluoroprop-2-en-1-yl]-4-({5-[6-(propan-2-yloxy)pyridin-3-yl]thiophen-2-yl}methyl)-2,4-dihydro-3H-1,2,4-triazol-3-one], the IC50 in experiment [1] is 730 nM; in experiment [2], 310 nM; at recombinant human VAP-1 it was 2.7 nM; in experiment [3], > 100000 nM.

Turning to `NC/C(=C\F)Cn1ncn(Cc2ccc(-c3ccc(N)cc3)s2)c1=O` [Example 166, 2-[(2E)-2-(aminomethyl)-3-fluoroprop-2-en-1-yl]-4-{[5-(4-aminophenyl)thiophen-2-yl]methyl}-2,4-dihydro-3H-1,2,4-triazol-3-one], the IC50 in experiment [1] was 14000 nM; in experiment [2], 1300 nM; at recombinant human VAP-1, 7.7 nM; in experiment [3] it was > 100000 nM.

Take `NC/C(=C\F)Cn1ncn(Cc2ccc(-c3ccc4oc(=O)[nH]c4c3)s2)c1=O` [Example 72, 5-[5-(1-[(2E)-2-(aminomethyl)-3-fluoroprop-2-en-1-yl]-5-oxo-1,5-dihydro-4H-1,2,4-triazol-4-ylmethyl)thiophen-2-yl]-1,3-benzooxazol-2(3H)-one hydrochloride]: the IC50 is 230 nM in experiment [1], < 10 nM in experiment [2], 0.4 nM at recombinant human VAP-1 and ≥ 100000 nM in experiment [3].

For `Cc1cc(-c2ccc(Cn3cnn(C/C(=C/F)CN)c3=O)s2)cc2c(C(F)(F)F)cc(=O)[nH]c12` [Example 83, 6-[5-[[1-[(E)-2-(aminomethyl)-3-fluoro-allyl]-5-oxo-1,2,4-triazol-4-yl]methyl]-2-thienyl]-8-methyl-4-(trifluoromethyl)-1H-quinolin-2-one], the IC50 is 280 nM in experiment [1], 650 nM in experiment [2], 0.5 nM at recombinant human VAP-1 and 36000 nM in experiment [3].

As for `CN(C)c1ccc(/C=C/c2ccc(Cn3cnn(C/C(=C/F)CN)c3=O)s2)cc1` [Example 120, 2-[(E)-2-(aminomethyl)-3-fluoro-allyl]-4-[[5-[2-[4-(dimethylamino)phenyl]vinyl]-2-thienyl]methyl]-1,2,4-triazol-3-one], the half-inhibitory concentration (IC50) in experiment [1] was 1100 nM; in experiment [2], 340 nM; on recombinant human VAP-1, 6.2 nM; in experiment [3] it was 16000 nM.

On to `NC/C(=C\F)Cn1ncn(CCc2ccc(-c3ccc(N4CCNCC4)cc3)s2)c1=O` [Example 221, 2-[(2E)-2-(aminomethyl)-3-fluoroprop-2-en-1-yl]-4-(2-{5-[4-(piperazin-1-yl)phenyl]thiophen-2-yl}ethyl)-2,4-dihydro-3H-1,2,4-triazol-3-one], for which the IC50 was 1420 nM in experiment [1], > 100000 nM in experiment [2], 1.8 nM on recombinant human VAP-1 and > 100000 nM in experiment [3].

With `NC/C(=C\F)Cn1ncn(Cc2ccc(-c3ccnnc3)s2)c1=O` [Example 175, 2-[(2E)-2-(aminomethyl)-3-fluoroprop-2-en-1-yl]-4-{[5-(pyridazin-4-yl)thiophen-2-yl]methyl}-2,4-dihydro-3H-1,2,4-triazol-3-one], the concentration for half-maximal inhibition (IC50) in experiment [1] was 670 nM; in experiment [2] it was 4400 nM; on recombinant human VAP-1, 3.6 nM; in experiment [3] it was > 100000 nM.
